Laboratory results from doi:10.1101/2020.06.11.145995v1 (biorxiv, 2020).
Like-named read-outs stand apart in the source and are kept apart here. One block for each molecule: values may come before it.

Columns and labels:
Assay in all cases: biochemical
TEC = TEC (Homo sapiens, UniProt P42680)
PIK3CA(C420R) = PIK3CA(C420R) (Homo sapiens, UniProt P42336, C420R)
PDPK1 = PDPK1 (Homo sapiens, UniProt O15530)
TTK = TTK (Homo sapiens, UniProt P33981)
RET = RET (Homo sapiens, UniProt P07949)
RIOK1 = RIOK1 (Homo sapiens, UniProt Q9BRS2)
TNK2 = TNK2 (Homo sapiens, UniProt Q07912)
VEGFR2 = VEGFR2 (Homo sapiens, UniProt P35968)
TNIK = TNIK (Homo sapiens, UniProt Q9UKE5)
STK35 = STK35 (Homo sapiens, UniProt Q8TDR2)
TIE1 = TIE1 (Homo sapiens, UniProt P35590)
SRPK1 = SRPK1 (Homo sapiens, UniProt Q96SB4)
NEK5 = NEK5 (Homo sapiens, UniProt Q6P3R8)
NEK6 = NEK6 (Homo sapiens, UniProt Q9HC98)
TGFBR2 = TGFBR2 (Homo sapiens, UniProt P37173)
PDGFRA = PDGFRA (Homo sapiens, UniProt P16234)
NEK1 = NEK1 (Homo sapiens, UniProt Q96PY6)
SRPK2 = SRPK2 (Homo sapiens, UniProt P78362)
ULK3 = ULK3 (Homo sapiens, UniProt Q6PHR2)
SYK = SYK (Homo sapiens, UniProt P43405)
p38-beta = p38-beta (Homo sapiens, UniProt Q15759)
RIPK5 = RIPK5 (Homo sapiens, UniProt Q6XUX3)
TGFBR1 = TGFBR1 (Homo sapiens, UniProt P36897)
PCTK3 = PCTK3 (Homo sapiens, UniProt Q07002)
ZAK = ZAK (Homo sapiens, UniProt Q9NYL2)
RSK2 = RSK2 (Homo sapiens, UniProt P51812)
PIK3CA(E545K) = PIK3CA(E545K) (Homo sapiens, UniProt P42336, E545K)
STK39 = STK39 (Homo sapiens, UniProt Q9UEW8)
SLK = SLK (Homo sapiens, UniProt Q9H2G2)
[1] = read-out: CPT-1-70-1 (1μM) % control
[2] = read-out: HYJ-2-002-1 (1μM) % control

Sequence of VEGFR2 (P35968 whole entry): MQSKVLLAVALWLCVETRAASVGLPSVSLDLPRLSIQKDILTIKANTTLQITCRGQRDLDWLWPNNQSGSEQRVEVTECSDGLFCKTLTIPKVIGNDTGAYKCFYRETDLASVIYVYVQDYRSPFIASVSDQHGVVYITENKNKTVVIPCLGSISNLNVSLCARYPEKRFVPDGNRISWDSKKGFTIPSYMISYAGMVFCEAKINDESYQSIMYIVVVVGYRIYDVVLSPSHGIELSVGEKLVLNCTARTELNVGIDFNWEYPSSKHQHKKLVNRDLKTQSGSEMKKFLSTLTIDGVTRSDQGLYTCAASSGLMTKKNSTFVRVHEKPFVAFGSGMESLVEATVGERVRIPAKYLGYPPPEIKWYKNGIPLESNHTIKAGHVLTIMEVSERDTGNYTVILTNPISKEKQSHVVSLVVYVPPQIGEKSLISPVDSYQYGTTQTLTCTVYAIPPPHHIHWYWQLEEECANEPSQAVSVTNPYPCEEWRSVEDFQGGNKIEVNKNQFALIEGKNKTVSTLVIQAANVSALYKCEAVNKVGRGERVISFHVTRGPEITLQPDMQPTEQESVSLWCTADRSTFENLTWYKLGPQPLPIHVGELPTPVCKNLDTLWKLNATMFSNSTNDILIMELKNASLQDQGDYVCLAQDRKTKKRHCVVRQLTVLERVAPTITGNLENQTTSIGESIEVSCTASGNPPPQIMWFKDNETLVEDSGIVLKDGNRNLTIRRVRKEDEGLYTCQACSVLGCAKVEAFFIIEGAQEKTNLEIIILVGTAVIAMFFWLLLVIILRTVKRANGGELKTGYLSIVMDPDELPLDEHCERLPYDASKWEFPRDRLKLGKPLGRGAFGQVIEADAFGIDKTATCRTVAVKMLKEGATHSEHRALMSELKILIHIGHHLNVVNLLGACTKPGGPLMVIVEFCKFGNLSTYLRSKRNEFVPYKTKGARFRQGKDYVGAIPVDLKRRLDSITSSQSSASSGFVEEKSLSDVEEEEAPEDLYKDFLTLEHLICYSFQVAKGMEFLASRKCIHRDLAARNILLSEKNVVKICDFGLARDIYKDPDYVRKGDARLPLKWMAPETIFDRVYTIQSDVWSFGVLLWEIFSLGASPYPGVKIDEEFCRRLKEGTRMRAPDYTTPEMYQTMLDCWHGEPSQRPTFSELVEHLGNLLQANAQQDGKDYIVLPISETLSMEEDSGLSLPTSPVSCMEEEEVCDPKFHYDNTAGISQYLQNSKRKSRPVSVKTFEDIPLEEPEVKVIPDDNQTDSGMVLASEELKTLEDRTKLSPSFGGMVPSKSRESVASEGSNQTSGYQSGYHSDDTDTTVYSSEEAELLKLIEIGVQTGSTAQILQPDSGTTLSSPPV
Sequence of PIK3CA(C420R) (P42336 whole entry C420R): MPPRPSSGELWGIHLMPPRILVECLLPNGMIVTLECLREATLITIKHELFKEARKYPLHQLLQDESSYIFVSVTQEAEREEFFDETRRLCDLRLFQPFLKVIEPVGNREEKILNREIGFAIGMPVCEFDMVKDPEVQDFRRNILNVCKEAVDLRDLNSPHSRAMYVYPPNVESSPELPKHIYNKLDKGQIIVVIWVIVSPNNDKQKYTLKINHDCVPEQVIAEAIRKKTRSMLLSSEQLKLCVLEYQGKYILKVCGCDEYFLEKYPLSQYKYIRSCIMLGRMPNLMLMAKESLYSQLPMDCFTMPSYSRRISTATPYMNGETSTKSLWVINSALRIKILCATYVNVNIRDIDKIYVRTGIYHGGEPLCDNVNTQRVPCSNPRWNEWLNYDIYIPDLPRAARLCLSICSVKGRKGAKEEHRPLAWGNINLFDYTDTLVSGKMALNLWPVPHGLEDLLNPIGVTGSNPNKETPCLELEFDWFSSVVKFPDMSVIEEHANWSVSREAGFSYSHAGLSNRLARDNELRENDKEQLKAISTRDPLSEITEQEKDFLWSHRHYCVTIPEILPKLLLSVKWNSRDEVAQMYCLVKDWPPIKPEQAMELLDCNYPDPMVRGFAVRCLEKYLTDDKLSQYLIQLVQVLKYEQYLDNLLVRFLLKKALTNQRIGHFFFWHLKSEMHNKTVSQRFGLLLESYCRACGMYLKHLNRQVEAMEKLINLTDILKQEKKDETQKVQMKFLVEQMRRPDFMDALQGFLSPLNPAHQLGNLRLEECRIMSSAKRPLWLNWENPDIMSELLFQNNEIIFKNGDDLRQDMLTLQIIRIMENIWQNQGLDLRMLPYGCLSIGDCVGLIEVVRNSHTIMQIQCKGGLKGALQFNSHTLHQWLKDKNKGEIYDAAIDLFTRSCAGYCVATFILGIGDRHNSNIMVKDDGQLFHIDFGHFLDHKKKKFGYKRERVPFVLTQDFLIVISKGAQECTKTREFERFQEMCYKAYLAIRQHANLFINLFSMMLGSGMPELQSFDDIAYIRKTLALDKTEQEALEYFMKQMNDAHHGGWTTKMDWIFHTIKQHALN
Sequence of SRPK1 (Q96SB4 whole entry): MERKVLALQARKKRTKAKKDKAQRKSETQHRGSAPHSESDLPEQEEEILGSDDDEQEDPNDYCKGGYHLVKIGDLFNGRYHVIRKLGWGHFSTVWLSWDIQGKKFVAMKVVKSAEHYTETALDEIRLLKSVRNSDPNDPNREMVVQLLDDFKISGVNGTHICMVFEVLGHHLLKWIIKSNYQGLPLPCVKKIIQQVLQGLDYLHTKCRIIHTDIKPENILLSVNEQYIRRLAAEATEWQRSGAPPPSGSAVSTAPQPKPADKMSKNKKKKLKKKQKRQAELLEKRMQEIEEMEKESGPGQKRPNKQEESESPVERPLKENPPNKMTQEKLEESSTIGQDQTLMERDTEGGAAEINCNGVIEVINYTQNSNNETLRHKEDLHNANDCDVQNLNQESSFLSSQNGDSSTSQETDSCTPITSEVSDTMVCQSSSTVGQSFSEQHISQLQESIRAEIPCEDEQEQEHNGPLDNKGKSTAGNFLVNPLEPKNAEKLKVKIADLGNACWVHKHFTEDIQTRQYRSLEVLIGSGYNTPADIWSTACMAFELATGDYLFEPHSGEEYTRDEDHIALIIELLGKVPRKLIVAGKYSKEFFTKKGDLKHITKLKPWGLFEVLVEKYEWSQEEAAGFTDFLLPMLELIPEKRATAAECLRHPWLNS
Sequence of PDGFRA (P16234 whole entry): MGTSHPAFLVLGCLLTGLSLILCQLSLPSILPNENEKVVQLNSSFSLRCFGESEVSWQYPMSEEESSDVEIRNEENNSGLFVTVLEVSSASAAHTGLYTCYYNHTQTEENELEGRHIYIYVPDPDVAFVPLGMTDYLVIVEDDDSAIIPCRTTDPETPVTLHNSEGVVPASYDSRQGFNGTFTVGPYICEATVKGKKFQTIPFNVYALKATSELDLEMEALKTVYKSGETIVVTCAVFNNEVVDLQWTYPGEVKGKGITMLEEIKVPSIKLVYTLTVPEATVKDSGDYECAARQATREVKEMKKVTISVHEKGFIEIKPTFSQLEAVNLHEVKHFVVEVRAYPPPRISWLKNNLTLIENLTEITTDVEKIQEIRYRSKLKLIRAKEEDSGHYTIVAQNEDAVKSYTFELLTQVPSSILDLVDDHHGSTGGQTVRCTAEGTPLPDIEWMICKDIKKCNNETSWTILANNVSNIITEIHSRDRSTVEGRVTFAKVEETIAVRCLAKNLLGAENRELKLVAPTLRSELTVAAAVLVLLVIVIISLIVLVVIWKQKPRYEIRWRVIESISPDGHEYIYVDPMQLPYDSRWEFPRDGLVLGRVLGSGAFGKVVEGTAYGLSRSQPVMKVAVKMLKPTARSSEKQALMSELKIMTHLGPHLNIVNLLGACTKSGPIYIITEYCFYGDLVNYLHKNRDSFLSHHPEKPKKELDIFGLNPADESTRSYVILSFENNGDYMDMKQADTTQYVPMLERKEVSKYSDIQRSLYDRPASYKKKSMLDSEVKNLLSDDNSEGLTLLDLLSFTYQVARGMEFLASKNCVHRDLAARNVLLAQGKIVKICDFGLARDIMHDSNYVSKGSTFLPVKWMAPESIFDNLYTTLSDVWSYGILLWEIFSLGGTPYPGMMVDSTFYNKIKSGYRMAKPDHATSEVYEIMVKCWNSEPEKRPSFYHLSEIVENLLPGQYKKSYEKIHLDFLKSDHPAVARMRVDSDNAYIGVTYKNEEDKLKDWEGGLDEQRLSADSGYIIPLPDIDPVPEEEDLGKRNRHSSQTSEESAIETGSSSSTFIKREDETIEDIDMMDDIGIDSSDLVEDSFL
Sequence of ULK3 (Q6PHR2 whole entry): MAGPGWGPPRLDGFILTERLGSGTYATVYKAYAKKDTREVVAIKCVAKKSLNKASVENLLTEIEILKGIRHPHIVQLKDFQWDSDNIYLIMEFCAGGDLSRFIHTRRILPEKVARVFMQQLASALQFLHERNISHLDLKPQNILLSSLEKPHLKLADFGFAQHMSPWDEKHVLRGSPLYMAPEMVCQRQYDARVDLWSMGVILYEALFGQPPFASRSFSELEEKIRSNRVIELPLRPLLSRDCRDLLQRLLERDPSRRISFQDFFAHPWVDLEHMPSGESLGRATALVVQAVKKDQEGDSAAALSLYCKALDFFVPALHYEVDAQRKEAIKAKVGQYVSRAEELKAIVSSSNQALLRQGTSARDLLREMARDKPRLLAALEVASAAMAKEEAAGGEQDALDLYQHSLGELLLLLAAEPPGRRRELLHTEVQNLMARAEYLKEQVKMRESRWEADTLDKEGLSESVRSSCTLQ
Sequence of NEK6 (Q9HC98 whole entry): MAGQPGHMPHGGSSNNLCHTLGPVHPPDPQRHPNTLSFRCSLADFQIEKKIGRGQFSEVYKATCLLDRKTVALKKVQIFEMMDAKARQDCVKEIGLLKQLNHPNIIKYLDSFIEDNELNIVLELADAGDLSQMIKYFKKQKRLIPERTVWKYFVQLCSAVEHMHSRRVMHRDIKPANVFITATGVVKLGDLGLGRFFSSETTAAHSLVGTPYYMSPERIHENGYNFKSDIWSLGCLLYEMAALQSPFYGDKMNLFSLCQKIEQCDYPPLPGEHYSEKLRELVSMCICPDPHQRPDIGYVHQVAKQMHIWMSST
Sequence of PIK3CA(E545K) (P42336 whole entry E545K): as the sequence (P42336 whole entry C420R) above, with R420C, E545K counted along it

SMILES: CN1CCN(c2ccc(Nc3nc(Oc4ccc(NC(=O)CCl)cc4)c4cc[nH]c4n3)cc2)CC1 [CPT1-70-1]
remaining activity at 1 µM (TEC; [1]): 10%
remaining activity at 1 µM (PIK3CA(C420R); [1]): 100%
remaining activity at 1 µM (PDPK1; [1]): 64%
remaining activity at 1 µM (TTK; [1]): 4.8%
remaining activity at 1 µM (RET; [1]): 25%
remaining activity at 1 µM (RIOK1; [1]): 49%
remaining activity at 1 µM (TNK2; [1]): 100%
remaining activity at 1 µM (VEGFR2; [1]): 40%
remaining activity at 1 µM (TNIK; [1]): 20%
remaining activity at 1 µM (STK35; [1]): 100%
remaining activity at 1 µM (TIE1; [1]): 39%
remaining activity at 1 µM (SRPK1; [1]): 44%
remaining activity at 1 µM (NEK5; [1]): 82%
remaining activity at 1 µM (NEK6; [1]): 100%
remaining activity at 1 µM (TGFBR2; [1]): 100%
remaining activity at 1 µM (PDGFRA; [1]): 64%
remaining activity at 1 µM (NEK1; [1]): 100%
remaining activity at 1 µM (SRPK2; [1]): 98%
remaining activity at 1 µM (ULK3; [1]): 19%
remaining activity at 1 µM (SYK; [1]): 63%
remaining activity at 1 µM (p38-beta; [1]): 100%
remaining activity at 1 µM (RIPK5; [1]): 33%
remaining activity at 1 µM (TGFBR1; [1]): 100%
remaining activity at 1 µM (PCTK3; [1]): 97%
remaining activity at 1 µM (ZAK; [1]): 71%
remaining activity at 1 µM (RSK2; read-out: CPT-1-70-1 (1μM) % control, Kin.Dom.1-N-terminal): 100%
remaining activity at 1 µM (PIK3CA(E545K); [1]): 84%
remaining activity at 1 µM (STK39; [1]): 85%
remaining activity at 1 µM (SLK; [1]): 77%

remaining activity at 1 µM (TEC; [2]): 3.8%
remaining activity at 1 µM (PIK3CA(C420R); [2]): 100%
remaining activity at 1 µM (PDPK1; [2]): 72%
remaining activity at 1 µM (TTK; [2]): 64%
remaining activity at 1 µM (RET; [2]): 0.15%
remaining activity at 1 µM (RIOK1; [2]): 100%
remaining activity at 1 µM (TNK2; [2]): 4.1%
remaining activity at 1 µM (VEGFR2; [2]): 6.4%
remaining activity at 1 µM (TNIK; [2]): 11%
remaining activity at 1 µM (STK35; [2]): 91%
remaining activity at 1 µM (TIE1; [2]): 4.3%
remaining activity at 1 µM (SRPK1; [2]): 83%
remaining activity at 1 µM (NEK5; [2]): 21%
remaining activity at 1 µM (NEK6; [2]): 100%
remaining activity at 1 µM (TGFBR2; [2]): 41%
remaining activity at 1 µM (PDGFRA; [2]): 0.65%
remaining activity at 1 µM (NEK1; [2]): 82%
remaining activity at 1 µM (SRPK2; [2]): 100%
remaining activity at 1 µM (ULK3; [2]): 53%
remaining activity at 1 µM (SYK; [2]): 18%
remaining activity at 1 µM (p38-beta; [2]): 0.35%
remaining activity at 1 µM (RIPK5; [2]): 86%
remaining activity at 1 µM (TGFBR1; [2]): 100%
remaining activity at 1 µM (PCTK3; [2]): 100%
remaining activity at 1 µM (ZAK; [2]): 3.9%
remaining activity at 1 µM (RSK2; read-out: HYJ-2-002-1 (1μM) % control, Kin.Dom.1-N-terminal): 100%
remaining activity at 1 µM (PIK3CA(E545K); [2]): 100%
remaining activity at 1 µM (STK39; [2]): 94%
remaining activity at 1 µM (SLK; [2]): 9.8%
SMILES: CCN1CCN(Cc2ccc(NC(=O)c3ccc(C)c(CCc4cnc5[nH]ccc5c4OC)c3)cc2C(F)(F)F)CC1 [HYJ-2-002-1]
